Test [1] has as its system skin keratinocyte cell line (HaCaT). The test can be described thus: Protection of skin keratinocytes from ultraviolet injury (MTT assay). It is filed as cell-based, human. The settings on record: 25 mJ/cm^2 UVB; phosphatidylserine 20 and 40 μM, WY-14643 200 μM; 24 hours; FIG. 4. For orientation: Tetrazolium dyes change colour on reduction, which living cells bring about.

Test [2] relates to erythema formation due to UVB on arm inside parts of examinees. The test can be described thus: Suppression of skin damage (erythema formation) due to ultraviolet irradiation in examinees. It is filed as in vivo, human. The settings on record: 0.5% aqueous solution, 30 μl pre-applied; UVB 2, 3 and 4 MED; compared to the control group; FIG. 1. The method, then: In order to examine a skin damage (inflammatory response)-alleviating effect of the phosphatidylserine of the invention, which stimulation results from the ultraviolet irradiation, a following experiment was performed. At this time, the skin stimulation (inflammatory response) due to the ultraviolet irradiation was measured with an erythema formation level.
First, it was measured minimal erythma dosage (MED) in arm inside parts of examinees (28 years old or more, 10 women and men, respectively). An aqueous solution including phosphatidylserine 0.5% (aqueous solution phase containing 5% PEG 300; PEG300, Sigma, US) was previously applied to the arm inside parts of the examinees in an amount of 30 μl which were then irradiated with UVB (Sankyo Denki G15T8E sunlamps UV-B, Japan) in an intensity of 2 MED (78 mj/cm^2), 3 MED (117 mj/cm^2) and 4 MED (156 mj/cm^2) to measure suppression degrees of the erythema formation. At this time, a group for which the phosphatidylserine was not treated was used as a control group.

With phosphatidylserine, in test [1], the “protection of skin keratinocytes from ultraviolet injury (cell survival, MTT)” value is on record as “protected the skin keratinocytes from the ultraviolet injury”. In addition, the erythema formation entry in test [2] is recorded as “considerably suppressed”.

The values are drawn from patent publication US8022051B2, “Composition for protection and improvement of skin, or reinforcing skin barrier function comprising phosphatidylserine” (Doosan Corporation, priority 2004, dated 2011).
